Measured values published in paper PMC12304311, “Sequence-based virtual screening using transformers” (Nature Communications, 2025).

How the values were obtained:
[1] = biological target: T1, EGFR L858R/T790M/C797S kinase (EGFR^LTC) (Homo sapiens, UniProt P00533, C797S/L858R/T790M); test: biochemical; design: HTRF KINASE-TK inhibition assay, EGFR L858R/T790M/C797S, ATP about Km, dose response
Description: A total of 25 nL of each compound was transferred to a 384-well reaction plate (Greiner, Cat#784075) using an Echo655 acoustic dispenser. […] The kinase solution was prepared in 1× kinase reaction buffer (comprising 5 mM MgCl₂, 1 mM DTT, and 1 mM MnCl₂), and 2.5 μL of this solution was added to each well. The plate was centrifuged at 140 g for 1 min and incubated at 25 °C for 10 min. […] This ATP level was selected in accordance with the Cheng-Prusoff equation (where ATP = Km, IC50 = 2Ki) to accurately reflect the inhibitory potency of test compounds. Then, 2.5 μL of the substrate-ATP mixture was added to each well, followed by centrifugation at 140 g for 1 min. The plate was sealed and incubated at 25 °C for 50 min. Subsequently, a 2× detection reagent mixture containing XL665 and anti-phospho-tyrosine antibody in detection buffer was prepared, and 5 μL of this solution was added to each well. The plate was centrifuged again (140 g, 1 min) and incubated at 25 °C for 60 min. Fluorescence emissions at 620 nm (Cryptate) and 665 nm (XL665) were measured using a microplate reader. Each assay condition was tested in duplicate. […] This was achieved by fitting the calculated percentage inhibition and the logarithm of the compound concentrations to a variable slope (four-parameter) nonlinear regression model. The model is expressed by the equation:3 Y=Bottom+Top−Bottom/1+10^LogIC50−X×Hill slope where X denotes the log of the inhibitor concentration and Y represents the percentage inhibition. Furthermore, the percentage of enzymatic activity in the presence of inhibitors, expressed as % Control, is derived by subtracting the % Inhibition from 100%.

[2] = biological target: T1, EGFR L858R/T790M/C797S kinase (EGFR^LTC); test: HTRF KINASE-TK in vitro kinase inhibition assay, dose response; type: biochemical

T1 sequence (P00533 669-1210 T790M/C797S/L858R limits assumed): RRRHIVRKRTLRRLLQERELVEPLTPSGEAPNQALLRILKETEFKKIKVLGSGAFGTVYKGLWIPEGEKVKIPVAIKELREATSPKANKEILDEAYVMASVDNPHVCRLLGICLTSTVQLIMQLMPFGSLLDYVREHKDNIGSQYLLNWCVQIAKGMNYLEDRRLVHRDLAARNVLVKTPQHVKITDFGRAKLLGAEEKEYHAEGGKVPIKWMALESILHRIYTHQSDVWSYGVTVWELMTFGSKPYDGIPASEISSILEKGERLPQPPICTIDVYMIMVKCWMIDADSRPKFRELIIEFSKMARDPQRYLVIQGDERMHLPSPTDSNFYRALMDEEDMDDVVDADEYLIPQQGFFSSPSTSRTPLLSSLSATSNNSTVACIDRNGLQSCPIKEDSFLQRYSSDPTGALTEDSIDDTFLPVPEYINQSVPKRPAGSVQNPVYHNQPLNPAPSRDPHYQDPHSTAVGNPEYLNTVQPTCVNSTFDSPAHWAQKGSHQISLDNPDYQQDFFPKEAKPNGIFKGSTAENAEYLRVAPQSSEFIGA

| Structure (SMILES) | IC50 [1] | IC50 [2] |
| --- | --- | --- |
| COc1cc2nccc(Oc3ccc(NC(=O)c4cn(C(C)C)c(=O)n(-c5ccc(F)cc5)c4=O)cc3F)c2cc1OC [C5] | 2.74 µM | < 10 µM |
| N#Cc1ccnc(Nc2cc(C3CCN(C4COC4)CC3)cc(N3CCC(F)(F)C3)n2)c1 [C11] | 0.106 µM | < 10 µM |
| CC(C)N(C[C@H]1O[C@@H](n2cnc3c(N)ncnc32)[C@H](O)[C@@H]1O)[C@H]1C[C@@H](CCc2nc3cc(C(C)(C)C)ccc3[nH]2)C1 [C6] | > 10 µM | – |
| CCc1cc(Nc2nccc(-c3c(-c4ccc(OC)c(C(=O)Nc5c(F)cccc5F)c4)nc4ccccn34)n2)c(OC)cc1N1CCC(N2CCN(S(C)(=O)=O)CC2)CC1 [C7] | 3.58 µM | < 10 µM |

Now from value to compound:

| IC50 [1] | IC50 [2] | Structure (SMILES) |
| --- | --- | --- |
| > 10 µM | – | N[C@@H]1c2cccnc2[C@H](OC(=O)N2CCC(n3c(=O)[nH]c4ncccc43)CC2)CC[C@H]1c1cccc(F)c1F [C8] |
| – | 0.0012 µM | COc1cc(N2CCC(N(C)C)CC2)ccc1Nc1ncc(Cl)c(Nc2ccccc2P(C)(C)=O)n1 [C10] |
| – | 0.0055 µM | CC(=O)c1cnc2ccc(-c3cc(Cl)c(O)c(Cl)c3)nc2c1N[C@H]1CC[C@H](CN(C)C)CC1 [C1] |
| > 10 µM | – | CC(=O)O[C@]1(C(C)=O)CC[C@H]2[C@@H]3CCC4=CC(=O)CCC4=C3[C@@H](c3ccc(N(C)C)cc3)C[C@@]21C [C9] |
| > 10 µM | – | CC1(C)CCC(CN2CCN(c3ccc(C(=O)NS(=O)(=O)c4ccc(NCC5CCOCC5)c([N+](=O)[O-])c4)c(Oc4cnc5[nH]ccc5c4)c3)CC2)=C(c2ccc(Cl)cc2)C1 [C3] |
| > 10 µM | – | CN(C)CC#Cc1ccc(OCCCc2sc(N3CCc4cccc(C(=O)Nc5nc6ccccc6s5)c4C3)nc2C(=O)O)c(F)c1 [C2] |
